Data reported in patent US12103937B2, “Substituted pyridines and pyridazines as TYK2 inhibitors” (Sudo Biosciences Limited, priority 2021, dated 2024).

Legend:
[1] = test system: HEK-Blue IL-2 reporter cells, IL-2-stimulated STAT5 SEAP reporter; assay: HEK-Blue IL-2 reporter assay (SEAP) for determining selectivity; format: cell-based; settings: 4 ng/mL human recombinant IL-2, SEAP readout, read-out: IL-2 (SEAP selectivity, IC50 class)
Experimental: (§1) HEK-Blue™ IL-2 and IFNγ reporter cells with a stably-integrated cytokine receptor and STAT5 or STAT1 express STAT-inducible secreted embryonic alkaline phosphatase (SEAP) reporter gene upon cytokine stimulation. These cells were plated in DMEM (Gibco) containing 10% heat-inactivated FBS (Gibco) and 100 U/mL PenStrep (Gibco) at 37° C. under 5% CO2 conditions for 20-22 hours. The cells were then pretreated with serially diluted test compounds for 60 min prior to stimulation with either 4 ng/mL human recombinant IL-2 (Miltenyl Biotech) or 50 ng/mL human recombinant IFNγ (InvivoGen) for 24 hours. SEAP induction was measured using the QUANTI-Blue™ Solution (InvivoGen) according to the manufacturer's instructions.

[2] = test system: HEK-Blue IFNγ reporter cells, IFNγ-stimulated STAT1 SEAP reporter; assay: HEK-Blue IFNγ reporter assay (SEAP) for determining selectivity; format: cell-based; settings: Homo sapiens, 50 ng/mL human recombinant IFNγ, SEAP readout, read-out: IFN-γ (SEAP selectivity, IC50 class)
Experimental: as §1

Row | Structure (SMILES) | IC50 [1] [nM] | IC50 [2] [nM]
1 | [2H]C([2H])([2H])NC(=O)c1nnc(NC(=O)C2CC2)cc1Nc1nccc2c1N(C)[C@@H](C)c1nc(C)nn1-2 [Compound 112, (S)-6-(cyclopropanecarboxamido)-N-(methyl-d3)-4-((2,4,5-trimethyl-4,5-dihydropyrido[3,4-e][1,2,4]triazolo[1,5-a]pyrazin-6-yl)amino)pyridazine-3-carboxamide] | > 1000 | > 1000
2 | [2H]C([2H])([2H])NC(=O)c1nnc(NC(=O)C2CC2)cc1Nc1nccc2c1N(C)[C@H](C([2H])([2H])[2H])c1nn(C)nc1-2 [Compound 114, (R)-6-(cyclopropanecarboxamido)-4-((2,5-dimethyl-4-(methyl-d3)-4,5-dihydro-2H-[1,2,3]triazolo[4,5-c][1,7]naphthyridin-6-yl)amino)-N-(methyl-d3)pyridazine-3-carboxamide] | > 1000 | –
3 | [2H]C([2H])([2H])NC(=O)c1nnc(NC(=O)[C@H]2C[C@H]2F)cc1Nc1nccc2c1N(C)Cc1nn(C)nc1-2 [Compound 115, 4-((2,5-dimethyl-4,5-dihydro-2H-[1,2,3]triazolo[4,5-c][1,7]naphthyridin-6-yl)amino)-6-((1R,2R)-2-fluorocyclopropane-1-carboxamido)-N-(methyl-d3)pyridazine-3-carboxamide] | 300 to 1000 | 30 to 300
